In PubChem BioAssay (NCI) one finds TGI and GI50 data, which are given here for 13 compounds.

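48-hour exposure; five concentrations; linearly interpolated endpoints. GI50: concentration for 50% inhibition of growth. TGI denotes the concentration required for complete inhibition of growth.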 Where a SMILES comes first, the peptide text is derived from it. [ ]: non-standard residue; d: D form. The star is where a group is joined. NMeAc5c = CNC1(C(=O)O)CCCC1; Boc = CC(C)(C)OC(=O)*; OBn = c1ccc(CO*)cc1

Some test systems named below: UACC-62 melanoma; HT29 colon; TK-10 renal; UO-31 renal; CAKI-1 renal; SK-MEL-28 melanoma; M14 melanoma; K-562 leukemia; MDA-MB-231 breast; MDA-MB-435; UACC-257 melanoma.
Common to all, as to experiment: DTP human tumour cell line panel, 48 h

Turning to `N#CCCC1C(C#N)C2(Cl)CC1(Cl)C(Cl)=C2Cl` (stereo not given), the TGI with UACC-62 melanoma, in the experiment with HT29 colon, in the experiment with TK-10 renal, in the experiment with UO-31 renal, with CAKI-1 renal and with SK-MEL-28 melanoma was more than 10 µM in each case. The TGI in the experiment on M14 melanoma, in the experiment with K-562 leukemia, in the experiment with MDA-MB-231 breast and in the experiment on MDA-MB-435 was more than 10 µM each time.
Turning to `COCO[C@@H]1C[C@H]2C(=O)Nc3ccccc3C(=O)N2C1`, the TGI in the experiment on UACC-62 melanoma was more than 100 µM; with HT29 colon, more than 100 µM; in the experiment on TK-10 renal, more than 100 µM; with UO-31 renal, 74.5 µM; with CAKI-1 renal, more than 100 µM; with SK-MEL-28 melanoma, more than 100 µM. The TGI in the experiment on M14 melanoma, in the experiment on MDA-MB-231 breast, in the experiment with MDA-MB-435 and in the experiment with UACC-257 melanoma was more than 100 µM each time.
As for `O=c1c2cc([N+](=O)[O-])cnc2sn1-c1ccc([N+](=O)[O-])cc1`, the TGI in the experiment with UACC-62 melanoma is more than 100 µM; in the experiment with HT29 colon, 55.8 µM; with TK-10 renal, more than 100 µM; in the experiment on UO-31 renal, more than 100 µM; in the experiment on SK-MEL-28 melanoma it was more than 100 µM; with M14 melanoma, more than 100 µM. Also, the total growth inhibition concentration (TGI) with MDA-MB-231 breast is 53.6 µM; in the experiment on MDA-MB-435, more than 100 µM; in the experiment on UACC-257 melanoma, more than 100 µM.
With `Cc1ccc(Cl)c2[nH]c(-c3ccccc3)cc(=O)c12`, the TGI in the experiment on UACC-62 melanoma, with HT29 colon, in the experiment on TK-10 renal, in the experiment with SK-MEL-28 melanoma, in the experiment on M14 melanoma and in the experiment on K-562 leukemia was more than 100 µM in each case. Further, the TGI in the experiment on MDA-MB-231 breast, in the experiment with MDA-MB-435 and in the experiment on UACC-257 melanoma was more than 100 µM in each case.
In the case of `CC1CCC(n2c3cnccc3c3cnc(Nc4ccc5c(n4)CCN(C(=O)CO)C5)nc32)CC1` (stereo not given), the GI50 in the experiment with HT29 colon is 0.596 µM; with UO-31 renal it was 0.263 µM; with CAKI-1 renal, 0.536 µM; with M14 melanoma, 0.681 µM; with MDA-MB-231 breast, 1.38 µM; in the experiment with MDA-MB-435 it was 0.66 µM. Besides, in the experiment with UACC-257 melanoma, the GI50 is more than 100 µM. The total growth inhibition concentration (TGI) with HT29 colon, in the experiment with UO-31 renal, in the experiment on CAKI-1 renal, in the experiment with M14 melanoma, in the experiment on MDA-MB-231 breast and in the experiment with MDA-MB-435 was more than 100 µM in each case. This compound also registered a TGI with UACC-257 melanoma of more than 100 µM.
Take `CN(C(=O)C(Cc1ccccc1)NC(=O)OC(C)(C)C)C1(C(=O)NC(Cc2ccccc2)C(=O)OCc2ccccc2)CCCC1` (stereo not drawn) (Boc-Phe-[NMeAc5c]-Phe-OBn; configuration not given here): the total growth inhibition concentration (TGI) in the experiment on UACC-62 melanoma was 71.2 µM; with HT29 colon, 56.7 µM; in the experiment on TK-10 renal, more than 100 µM; in the experiment with UO-31 renal, 82.6 µM; in the experiment with SK-MEL-28 melanoma, more than 100 µM; in the experiment with M14 melanoma it was 45.9 µM. For the same compound, the TGI is 97 µM in the experiment on K-562 leukemia, 87 µM in the experiment on MDA-MB-231 breast, more than 100 µM with MDA-MB-435 and more than 100 µM in the experiment on UACC-257 melanoma.
Turning to `COc1cccc(C(=O)O[C@H]2[C@@H]3[C@]4(OC(C)=O)CO[C@@H]4C[C@H](O)[C@@]3(C)C(=O)[C@H](OC(C)=O)C3=C(C)[C@@H](OC(=O)[C@H](O)[C@@H](NC(=O)OC(C)(C)C)c4ccco4)C[C@]2(O)C3(C)C)c1`, the TGI in the experiment with UACC-62 melanoma is more than 27.6 µM; in the experiment on HT29 colon, 0.133 µM; in the experiment with TK-10 renal, 27.4 µM; with UO-31 renal, more than 35 µM; with CAKI-1 renal, more than 37.5 µM; in the experiment on SK-MEL-28 melanoma, more than 29.5 µM. Moreover, the TGI in the experiment on M14 melanoma is 5.9 µM; with MDA-MB-231 breast, more than 37.5 µM; with MDA-MB-435, 0.0909 µM; in the experiment with UACC-257 melanoma, more than 37.5 µM.
Consider `O=C1/C(=C/c2ccccc2)N=C2Sc3c(nc[nH]c3=O)N12`, for which the TGI with HT29 colon, in the experiment with TK-10 renal, in the experiment on UO-31 renal, with CAKI-1 renal, in the experiment on SK-MEL-28 melanoma and in the experiment on M14 melanoma was more than 100 µM throughout. Moreover, the TGI with K-562 leukemia is 83.5 µM; with MDA-MB-231 breast it was more than 100 µM; with MDA-MB-435, more than 100 µM; in the experiment with UACC-257 melanoma, more than 100 µM.
As for `O=C1/C(=C\c2ccccc2)C(NC2CCCCC2)c2ccccc21` (stereo not given), the TGI in the experiment on UACC-62 melanoma is 6.2 µM; in the experiment on TK-10 renal it was 2.59 µM; in the experiment with UO-31 renal, 2.31 µM; in the experiment with CAKI-1 renal, 2.83 µM; with SK-MEL-28 melanoma, 6.06 µM; in the experiment on M14 melanoma, 3.18 µM. The TGI in the experiment on K-562 leukemia was found to be 5.07 µM; with MDA-MB-231 breast it was 5.2 µM; in the experiment on MDA-MB-435, 3.18 µM; in the experiment on UACC-257 melanoma it was 2.69 µM.
On to `COc1ccc(-c2c(C#N)c(-c3ccc(C)cc3)n(NS(=O)(=O)c3ccc(C)cc3)c(=O)c2C#N)cc1`, for which the TGI in the experiment with UACC-62 melanoma, with HT29 colon, in the experiment with TK-10 renal, in the experiment on CAKI-1 renal, in the experiment with SK-MEL-28 melanoma and in the experiment on M14 melanoma was more than 100 µM each time. Besides, the TGI with K-562 leukemia, with MDA-MB-231 breast, with MDA-MB-435 and in the experiment on UACC-257 melanoma was more than 100 µM in each case.
Take `COc1ccc2c(c1)/C(=C/CCN(C)C)c1ccccc1S2`: the TGI in the experiment with HT29 colon was more than 100 µM; in the experiment with TK-10 renal it was more than 100 µM; with UO-31 renal, 88.6 µM; in the experiment on SK-MEL-28 melanoma it was 38.8 µM; in the experiment on M14 melanoma it was more than 100 µM; with K-562 leukemia, more than 100 µM. Also, the TGI in the experiment with MDA-MB-231 breast, with MDA-MB-435 and in the experiment with UACC-257 melanoma was more than 100 µM throughout.
Consider `N#CC1(C#N)N[C@@H](c2ccsc2)[C@H]2C(=O)N(c3ccccc3)C(=O)[C@H]21`, for which the TGI in the experiment with UACC-62 melanoma, in the experiment on HT29 colon, in the experiment on TK-10 renal, in the experiment with UO-31 renal, in the experiment on CAKI-1 renal and in the experiment with SK-MEL-28 melanoma was more than 100 µM throughout. The TGI in the experiment with K-562 leukemia, in the experiment on MDA-MB-231 breast, in the experiment with MDA-MB-435 and in the experiment with UACC-257 melanoma was more than 100 µM in each case.
In the case of `O=C1CCCSC(=O)N1Cc1ccccc1`, the TGI in the experiment on UACC-62 melanoma, with HT29 colon, in the experiment on TK-10 renal, with CAKI-1 renal, with SK-MEL-28 melanoma and with M14 melanoma was more than 100 µM each time. Besides, the TGI in the experiment with MDA-MB-231 breast, with MDA-MB-435 and in the experiment with UACC-257 melanoma was more than 100 µM each time.
